ChEMBL document CHEMBL5725756, “Bifunctional compounds and use for reducing uric acid levels” (2018)
pIC50: −log10 of the molar value.

Molecular target: Xanthine dehydrogenase/oxidase (Homo sapiens, UniProt P47989)
Test: xanthine oxidase activity: Xanthine oxidase inhibition was determined using a standard fluorescence-based assay for xanthine oxidase activity (McHale A, Grimes H, Coughlan M P: Int J Biochem. 10:317-9, 1979) with minor variations. […] Experiments on test compounds were performed in triplicate in multi-well plates using 10 concentrations of each compound that ranged over a 3-fold dilution.

Sequence of Xanthine dehydrogenase/oxidase (P47989 whole entry): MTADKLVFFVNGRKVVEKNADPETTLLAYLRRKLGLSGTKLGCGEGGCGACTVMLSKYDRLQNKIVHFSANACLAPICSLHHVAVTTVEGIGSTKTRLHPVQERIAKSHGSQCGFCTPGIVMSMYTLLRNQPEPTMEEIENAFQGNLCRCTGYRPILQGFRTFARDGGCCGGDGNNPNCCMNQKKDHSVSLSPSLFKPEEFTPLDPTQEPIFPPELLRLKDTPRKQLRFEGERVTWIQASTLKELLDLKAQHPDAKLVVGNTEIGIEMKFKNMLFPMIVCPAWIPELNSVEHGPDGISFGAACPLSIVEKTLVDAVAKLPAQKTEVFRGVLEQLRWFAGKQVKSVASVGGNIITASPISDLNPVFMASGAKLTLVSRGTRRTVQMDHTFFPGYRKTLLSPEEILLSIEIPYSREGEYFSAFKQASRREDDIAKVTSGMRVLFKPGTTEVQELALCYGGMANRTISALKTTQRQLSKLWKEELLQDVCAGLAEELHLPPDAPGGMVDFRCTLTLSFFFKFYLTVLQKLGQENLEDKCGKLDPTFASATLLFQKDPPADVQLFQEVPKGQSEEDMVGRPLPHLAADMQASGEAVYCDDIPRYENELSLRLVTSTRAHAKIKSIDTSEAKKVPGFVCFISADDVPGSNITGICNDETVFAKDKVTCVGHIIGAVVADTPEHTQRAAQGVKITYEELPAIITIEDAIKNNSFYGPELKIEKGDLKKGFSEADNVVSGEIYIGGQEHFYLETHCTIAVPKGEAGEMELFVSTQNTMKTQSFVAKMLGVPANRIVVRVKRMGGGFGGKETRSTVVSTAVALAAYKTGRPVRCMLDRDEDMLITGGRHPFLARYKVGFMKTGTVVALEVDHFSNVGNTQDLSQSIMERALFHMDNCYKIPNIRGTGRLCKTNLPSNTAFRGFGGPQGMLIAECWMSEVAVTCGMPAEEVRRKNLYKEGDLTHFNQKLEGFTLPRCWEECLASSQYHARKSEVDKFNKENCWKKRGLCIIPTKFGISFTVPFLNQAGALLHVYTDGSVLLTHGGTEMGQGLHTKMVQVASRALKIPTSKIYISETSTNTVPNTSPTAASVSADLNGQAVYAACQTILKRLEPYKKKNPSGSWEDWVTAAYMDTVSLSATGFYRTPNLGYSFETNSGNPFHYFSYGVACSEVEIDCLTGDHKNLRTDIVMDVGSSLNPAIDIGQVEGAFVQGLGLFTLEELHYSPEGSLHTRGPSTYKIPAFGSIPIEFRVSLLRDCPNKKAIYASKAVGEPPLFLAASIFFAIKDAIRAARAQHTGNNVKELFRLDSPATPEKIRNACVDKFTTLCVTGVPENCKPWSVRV

SMILES: O=C(O)CSc1nnc(Br)n1-c1ccc(C2CC2)c2ccccc12
- pIC50: < 3.52
